# Test results from article PMC8459327, “Identification of molecular glues of the SLP76/14-3-3 protein–protein interaction” (RSC Medicinal Chemistry, 2021).
# “Also recorded” adds a separate entry of the source. Where two headings read alike, the source gives them in different places.
# T1: 14-3-3γ (Homo sapiens, UniProt P61981)
# T1 sequence (P61981 1-247): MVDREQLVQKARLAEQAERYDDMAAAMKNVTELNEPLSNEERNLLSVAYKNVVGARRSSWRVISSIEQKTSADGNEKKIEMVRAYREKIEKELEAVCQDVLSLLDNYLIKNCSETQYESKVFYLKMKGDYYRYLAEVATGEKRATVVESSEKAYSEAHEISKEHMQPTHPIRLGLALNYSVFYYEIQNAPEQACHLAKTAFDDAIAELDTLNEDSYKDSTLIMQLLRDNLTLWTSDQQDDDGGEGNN
# B1: SLP76-SH2: 20 KDa phosphorylated SLP76 protein construct (pSer376), binding partner of 14-3-3γ (protein)
# chain: MPGAFSESNSSFPQSASLPPYFSQGPSNRPPIRAEGRNFPLPLPNKPRPPSPAEEENSLNEEWYVSYITRPEAEAALRKINQDGTFLVRDSSKKTTTNPYVLMVLYKDKVYNIQIRYQKESQVYLLGTGLRGKEDFLSVSDIIDYFRKMPLLLIDGKNRGSRYQCTLTHAAGYP
# modifications: phospho-Ser376 (in vitro by HPK1); His6-SUMO tag cleaved; AF647 amine-labelled in HTRF; the segment is inferred to span Ser376 and the C-terminal SH2 domain to t
# Assays:
# 14-3-3γ/SLP76 [1] = target: T2, 14-3-3γ/SLP76 (Homo sapiens, UniProt P61981+Q13094); test: HTRF dose-ratio assay (SLP76 titration at fixed compound concentrations); type: binding
# T2 sequence (Q13094 356-533, one chain of several): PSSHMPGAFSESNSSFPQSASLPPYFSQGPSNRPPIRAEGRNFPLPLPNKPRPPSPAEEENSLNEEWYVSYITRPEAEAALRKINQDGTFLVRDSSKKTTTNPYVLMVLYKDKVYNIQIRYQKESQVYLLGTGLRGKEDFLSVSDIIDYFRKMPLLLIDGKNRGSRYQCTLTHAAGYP
# Experimental: Each protein titration was performed in the presence of a fixed concentration of compound. […] Proteins and R18 peptide were diluted from their stock concentration in assay buffer (50 mM Tris pH 7.5, 150 mM NaCl, 5 mM MgCl2, 0.05% v/v Tween-20). Incubation and data acquisition were performed as described above. […] For data analysis the background FRET signal generated by the titration in the presence of R18 10 μM was removed from all values. KD values for each curve were estimated and comparison with the different concentration of compounds were made. The data were fitted with a “One site – specific” model on GraphPad Prism version 8.1.1 for Windows, GraphPad Software, La Jolla California USA, www.graphpad.com. Each data point is the average of a duplicate measurement, standard deviation is reported as error bars.
# 14-3-3γ/SLP76 [2] = target: T2, 14-3-3γ/SLP76; test: Orthogonal SPR assay, compound flowed with SLP76 over immobilised 14-3-3γ; type: binding; parameters: key to SPR RU (%) mass increase 14-3-3γ/SLP76: Ns: no stabilisation observed in SPR; conditions: for Stabilisation in SPR (in words): off-rate / mass on chip versus runs without compound; for SPR RU (%) mass increase 14-3-3γ/SLP76: percentage of SLP76 remained on the chip after the dissociation phase (+240 s)
# Experimental: Of the 16 hit compounds 13 were tested in an orthogonal SPR assay in which each compound was flowed with SLP76 over 14-3-3γ immobilised on the chip. Runs at different concentrations of compound were compared to the runs in absence of compound. […] The effect of the compounds on 14-3-3γ/SLP76 was measured by calculating the percentage of SLP76 remained on the chip after the dissociation phase and immediately before: RU (%) = RU 5 s before dissociation/RU +240 s after dissociation. Dose–response curves were extrapolated from those sensorgrams plotting the RU (%) mass increase over the increase in compound concentrations.
# SPR experiments were performed on a Biacore T200 (Cytiva). The Sensor Chip NTA was validated as previously reported by Soini et al.[63] A DMSO tolerance at 2% and 5% was performed in the same way (Fig. S1 ^†).
# For compounds testing, the compounds were preincubated with SLP76, in final DMSO concentration of 5%. The compounds were tested at a single concentration of 100 μM and at multiple concentrations following a 3-fold dilution from a top concentration of 100 μM with SLP76 at the saturation concentration of 250 nM. A second set of experiments were performed at multiple concentrations of compound following a 3-fold dilution from a top concentration of 200 μM with SLP76 around the KD concentration of 40 nM. The SLP76/compound mixtures were flowed over the immobilised 14-3-3γ at 30 μL min^−1 for 180 s before allowing dissociation for 5 minutes. After every cycle, the chip was washed with EDTA and Ni^2+ and 14-3-3γ reinjected for the next cycle. The compound effects were measured by calculating the percentage of SLP76 remained on the chip after the dissociation phase and right before: RU (%) = RU 5 s before dissociation/RU +240 s after dissociation. RU response points relative to +240 s after dissociation were also plotted and an apparent EC50 was estimated. The data were fitted with a “One site – specific” model on GraphPad Prism version 8.1.1 for Windows, GraphPad Software, La Jolla California USA, www.graphpad.com.
# 14-3-3ζ/p27 = 14-3-3ζ/p27 (Homo sapiens, UniProt P46527+P63104); test: HTRF dose-response assay on 14-3-3ζ/p27; type: binding; conditions: for EC50: stabilisation, same FRET pair, EC50 estimated from fit, read-out: HTRF EC50 14-3-3ζ/p27
# Sequence of 14-3-3ζ/p27 (P63104 whole entry): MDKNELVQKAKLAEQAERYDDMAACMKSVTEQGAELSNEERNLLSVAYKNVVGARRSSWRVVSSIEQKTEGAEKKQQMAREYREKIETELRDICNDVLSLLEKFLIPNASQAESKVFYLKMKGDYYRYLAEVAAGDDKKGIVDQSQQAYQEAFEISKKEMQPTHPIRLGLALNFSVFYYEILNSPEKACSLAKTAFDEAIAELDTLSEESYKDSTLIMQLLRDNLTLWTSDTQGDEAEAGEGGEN
# Sequence of 14-3-3ζ/p27 (P46527 whole entry): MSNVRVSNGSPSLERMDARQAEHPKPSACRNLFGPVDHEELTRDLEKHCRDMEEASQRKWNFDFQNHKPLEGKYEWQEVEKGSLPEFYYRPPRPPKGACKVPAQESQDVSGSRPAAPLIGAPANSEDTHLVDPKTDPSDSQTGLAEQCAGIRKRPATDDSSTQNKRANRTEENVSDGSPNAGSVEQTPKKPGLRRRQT
# Experimental: (§1) 384 logistic plates were prefilled with 40 μL of compounds at 10 mM, 100% DMSO in column 3. Columns 1, 2 and 4 to 22 were filled with 20 μL of 100% DMSO with a Multidrop Dispenser (ThermoScientific). 2-Fold dilutions of the compounds were carried over from column 3 to 22, with a CyBio FeliX liquid handler (analytikjena). 2 μL of R18 peptide at 20 μM was added to columns 23 and 24 of the Corning 384-well 3574 final assay plates with a Multidrop Dispenser (ThermoScientific). 40 μL of protein mixture, containing Tb labelled 14-3-3γ at 1 nM and AF647 labelled SLP76 at 600 nM in assay buffer (50 mM Tris pH 7.5, 150 mM NaCl, 5 mM MgCl2, 0.05% v/v Tween-20) were added with a Multidrop Dispenser (ThermoScientific) into the Corning 384-well 3574 final assay plates. 2 μL of compounds along with the DMSO control were then transferred with a CyBio FeliX liquid handler (analytikjena) from the 384 logistic plates to the final Corning 384-well 3574 assay plates. […] The dose–response on the first 64 compounds was performed in singlet from a 500 μM top concentration. The repetition on the best 16 compounds was performed in duplicates from a 250 μM top concentration. A dose–response assay on an unrelated 14-3-3ζ/p27 HTRF protein pair was performed as described above. Incubation, data acquisition and normalisation were performed as described above. For EC50 estimation, the data were fitted with a “log(agonist) vs. response (three parameters)” model on GraphPad Prism version 8.1.1 for Windows, GraphPad Software, La Jolla California USA, www.graphpad.com. In the case of duplicates, each data point is the average of a duplicate measurement, standard deviation is reported as error bars.
# 14-3-3γ/SLP76 [3] = target: T2, 14-3-3γ/SLP76; test: HTRF dose-response assay on 14-3-3γ/SLP76; type: binding; conditions: stabilisation; 14-3-3γ-Tb 1 nM, SLP76-AF647 600 nM, 5% DMSO; EC50 estimated from fit; read-out: HTRF EC50 14-3-3γ/SLP76
# Experimental: 384-Well logistic plates were prefilled with 2 μL of compounds at 2 mM, 100% DMSO, except for columns 1, 2, 23 and 24. Columns 1, 2 were filled with 2 μL of DMSO while columns 23, 24 were filled with 2 μL of the 14-3-3 inhibitor R18 at 20 μM using a Multidrop Dispenser (ThermoScientific). Next, 40 μL of protein mixture containing Tb-labelled 14-3-3γ at 1 nM and AF647 labelled SLP76 at 600 nM in assay buffer (50 mM Tris pH 7.5, 150 mM NaCl, 5 mM MgCl2, 0.05% v/v Tween-20) were added using a Multidrop Dispenser (ThermoScientific). […] To perform the assay, 30 μL volumes were then transferred using a Biomek FX^P Automated Workstation (Beckman Coulter) into Corning 384-well 3574 assay plates. The plates were incubated at room temperature with gentle shaking for 4 h. Finally, the data were collected on a PHERAstar FSX plate reader (BMG Labtech) with an λex 337 nm, λem 665 nm and 620 nm HTRF filter setting. The data were exported in IDBS ActivityBase (IDBS) where they were normalised setting the R18 negative control as 100% inhibition and the DMSO control as 0%. Negative percentage values were therefore associated with a stabilisation of the 14-3-3γ/SLP76 interaction. The threshold of −20% inhibition (or 20% stabilisation) was chosen to select the hits to follow up. The selected hits were retested on 14-3-3γ/SLP76 and were also tested against an unrelated protein pair (IL-17/receptor) in a similar assay setup. […] All the assays were performed as described above.
# as §1
# 14-3-3γ [4] = target: T1, 14-3-3γ; test: SPR binding assay of the SLP76-SH2 construct to 14-3-3γ; conditions: in the presence of 5% DMSO, extrapolated from binding curve
# Text: Fig. 1 Assay set-up for the 14-3-3γ/SLP76 PPI. a) SPR binding assay of the SLP76-SH2 construct binding to 14-3-3γ in the presence of 5% DMSO. The KD value has been extrapolated from the binding curve reported on the right of the sensorgrams. b) HTRF assay set-up. The two proteins of interest, SLP76 and 14-3-3γ have been labelled with […], to generate a suitable matched pair of donor molecule (Tb) and acceptor molecule (AF647). The donor molecule, Tb labelled 14-3-3, is excited at the proper wavelength of 337 nm. When the acceptor is not in the proximity (no binding) no signal is detected. When SLP76 bound to 14-3-3 brings the acceptor molecule AF647 close to the donor, energy transfer occurs between the fluorophores pair. A radiation with the wavelength of 665 nm is consequently emitted to generate a read-out (665/620 nm). All HTRF protein systems used in this work are reported in the legend.
# SPR experiments were performed on a Biacore T200 (Cytiva). The Sensor Chip NTA was validated as previously reported by Soini et al.[63] A DMSO tolerance at 2% and 5% was performed in the same way (Fig. S1 ^†). […]
# confirming a DMSO tolerance of the 14-3-3γ/SLP76-SH2 system in an SPR context. A KD value calculated by […]
# 14-3-3γ [5] = target: T1, 14-3-3γ; parameters: method as in Soini et al.; conditions: SPR, in absence of DMSO; ref Soini et al.; read-out: KD of SLP76-SH2 binding to 14-3-3γ; cited from earlier work
Molecule,KD improvement in the SLP76 HTRF assay (14-3-3γ/SLP76 [1]),Stabilisation in SPR (in words) (14-3-3γ/SLP76 [2]),SPR RU (%) mass increase 14-3-3γ/SLP76 (14-3-3γ/SLP76 [2]),Selectivity between 14-3-3γ/SLP76 and 14-3-3ζ/p27 (in words) (14-3-3ζ/p27; comparison of HTRF dose-responses),EC50 (14-3-3ζ/p27) [µM],EC50 (14-3-3γ/SLP76 [3]) [µM],Stabilisation of 14-3-3ζ/p27 in HTRF (in words) (14-3-3ζ/p27),Kd (14-3-3γ [4]) [µM],Kd (14-3-3γ [5]) [µM]
"COc1ccc(C(=O)N2C[C@@H]3CN(CCO3)C(=O)[C@@H]3C[C@@H](CN3Cc3cccnc3)NC(=O)C[C@@H]3O[C@H](C2)[C@@H](O)[C@H]3O)cc1 [Compound 3, (3S,6S,10S,11R,12S,13R,17R)-11,12-dihydroxy-15-(4-methoxybenzoyl)-4-(pyridin-3-ylmethyl)-18,22-dioxa-1,4,7,15-tetrazatetracyclo[15.3.1.13,6.110,13]tricosane-2,8-dione]",10 fold,orthogonally confirmed by SPR; also recorded: orthogonally confirmed in the SPR assay,66.9%,selective for the 14-3-3γ/SLP76 system,> 250,14.4 ± 1.9,–,–,–
"c1cc(-c2nnc3scnn23)ccn1 [Compound 7, 3-pyridin-4-yl-[1,2,4]triazolo[3,4-b][1,3,4]thiadiazole]",fourfold,orthogonally confirmed by SPR; also recorded: strong concentration dependence in off-rate,57.7%,–,> 250,5.3 ± 1.9,no measurable modulation,–,–
"O=C(Cn1nc(C(F)(F)F)c2c1CCCC2)Nc1ccc(Cl)c(Cl)c1 [Compound 14, N-(3,4-dichlorophenyl)-2-[3-(trifluoromethyl)-4,5,6,7-tetrahydroindazol-1-yl]acetamide]",–,not confirmed in the SPR assay,Ns ^d,–,12.6 ± 14.4,21.2 ± 11.3,–,–,–
B1,–,–,–,–,–,–,–,0.0279 ± 0.0015,0.043
